Experiments:
Type in all cases: cell-based, Human
A549 cells [1] = assay: Molecular screening assay (MALDI FTICR MS, molecular variance score)
Description: After incubation for the respective times, wells were washed 3 times with PBS and stored at −80° C. The effect of different toxin dosage amounts and exposure times on the molecular content of a sample may be evaluated and reported directly for thousands of molecular species based upon the mass spectra that were collected for each of the samples. A comparison of the mass-to-charge (m/z) peak content between spectra from dosed cells and a reference spectrum from a non-dosed control sample delivers a mass spectrometric assessment of toxicity-induced molecular variation. However, seeking a data-driven global comparison instead of focusing on specific molecular species of interest makes the assessment of molecular change between the different experimental conditions very complex and high-dimensional. To determine which dosage amount induces the greatest molecular change, the inventors developed a quick and broad assessment of toxicity-induced molecular variance summarizing the entire recorded mass range. […]
Within each time point (represented by a 24-well plate), seven different dosage conditions were measured: six different toxin dosages and one reference condition (e.g., untreated). Per dosage condition there were nine distinct replicate measurements made: each dosage condition was represented by three replicate wells, from which three technical replicate spectra were measured per well. […]

A549 cells [2] = assay: Apoptosis assay (ApoONE, caspase 3/7 activation); conditions: 50 μM cisplatin
Description: Cell viability and apoptosis were assessed by CellTiter Glo (Promega) and ApoONE (Promega) kits, respectively. Molecular changes were screened using a MALDI-FTICR MS platform.
Human lung carcinoma A549 cells were obtained from ATCC (Manassas, Va.) and cultured in Dulbecco's Modified Eagle's Medium (DMEM, Gibco) with 10% v/v heat-inactivated fetal bovine serum (Atlanta Biologicals) and 1% v/v penicillin/streptomycin (P/S) (Gibco) at 37° C. with 5% CO2 atmosphere. Stable isotope labeling by amino acids in cell culture (SILAC) media were prepared using SILAC DMEM (Thermo Scientific) containing 10% v/v dialyzed heat-inactivated FBS (Fisher), 1% v/v P/S, proline (250 mg/L) (Thermo Scientific), and appropriate light and heavy labeled arginine (84 mg/L), lysine (146 mg/L). […]
At each time point, cell viability and apoptosis were assessed by CellTiter-Glo (Promega) and ApoONE (Promega) kits, respectively. Plates were incubated at 37° C. in a plate reader (BioTek) with data 174 acquisition every 10 min by luminescence (1 s read time, 200 gain) and fluorescence (485 nm excitation, 528 nm emission). […] Cell viability was also assessed using the LIVE/DEAD Viability/Cytotoxicity Kit for mammalian cells (ThermoFisher). […]

A549 cells [3] = assay: Multi-omics analysis (transcriptome, proteome, phosphoproteome, metabolome)
Description: Samples were analyzed for transcriptome changes by RNA sequencing at the Genomics Services Lab, HudsonAlpha, for proteome changes by label free, SILAC, and phospho-enriched SILAC LC-MS/MS, and metabolome changes by UPLC-IM-MS and data-independent acquisition (MSE) using both hydrophilic-interaction liquid chromatography and reverse phase liquid chromatography.
For proteomic and metabolomic label-free analyses, five sterile indium tin oxide (ITO)-coated glass slides (Delta Technologies) were placed in a tissue culture flask with removable lid (TPP). […] For proteomic analyses, slides were removed and washed 3 times with PBS, placed on dry ice, flash-frozen in liquid nitrogen, and stored at −80° C. prior to lysis. For metabolomics analysis, slides were washed in 50 mM ammonium formate.
For SILAC experiments, A549 cells were cultured in SILAC media for two weeks to ensure isotopic amino acid incorporation (verified by proteomic analysis). […] Following treatment cells were washed 3 times with 4° C. PBS. For phospho-SILAC, cells were washed with 4° C. PBS containing 1 mM sodium orthovanadate.
RNA was isolated using the RNeasy Mini Kit (Qiagen). For each time point, untreated and cisplatin-treated samples were isolated in triplicate and analyzed by the Genomics Services Lab at HudsonAlpha. RNAseq was performed using poly(A) selection on an Illumina HiSeq v4 sequencing platform. Reads were paired-end with a read length of 50 bp and 50 million reads per sample.
Cells were scraped from slides and lysed in 300 μL of 50 mM Tris pH 8, 150 mM NaCl, 1% Nonidet 40, 1 mM EDTA with added HALT Protease Inhibitor Cocktail (Thermo Scientific), centrifuged, and assayed for protein concentration (BCA Protein Assay, Thermo Scientific Pierce) using a SpectraMax M2e Microplate Reader with SoftMax Pro software version 5 (Molecular Devices). Aliquots of 100 μg of protein were acetone precipitated in six times the volume for 2 h at −80° C. Precipitates were washed three times with cold acetone and reconstituted in 10 μL of neat trifluoroethanol (TFE) and 10 μL of 100 mM Tris (pH 8.0). Samples were reduced with 1 μL of 0.5 M Tris(2-carboxyethyl)phosphine hydrochloride (TCEP) for 30 minutes at room temperature and alkylated with 2 μL of 0.5 M IAA for 30 minutes at room temperature in the dark. Samples were diluted with 100 mM Tris (pH 8.0) to obtain a final solution containing 10% TFE. The samples were digested with 2 μg of trypsin (a ratio of 50:1 protein 273 to enzyme) overnight at 37° C. A solution of 60% formic acid (FA) was added to the samples until they reached pH 3. Aliquots of 5 μg of digested sample were desalted using C18 spin tips (Protea) according to the supplied protocol and dried samples were reconstituted in 15 μL of 0.1% FA. Five replicates of cisplatin treated and control (untreated) cells were prepared in parallel.
Samples were analyzed on a Thermo Scientific Orbitrap Fusion Tribrid mass spectrometer in line with a Thermo Scientific Easy-nLC 1000 UHPLC system. Samples, 2 μL, were injected via the autosampler and loaded onto a Thermo Scientific Acclaim PepMap 100 C18 UHPLC column (75 μm×250 mm, 2 μm particle size, 100 Å pore size), with 0.1% FA in water (mobile phase A). Peptides were separated over a 140 minute two-step gradient with initial conditions set to 100% mobile phase A for 5 minutes before ramping to 20% mobile phase B, 0.1% FA in ACN, over 100 minutes and then 32% mobile phase B over 20 minutes. The remainder of the gradient was spent washing at 95% mobile phase B and returning to initial conditions. Eluted peptides were ionized via positive mode nanoelectrospray ionization (nESI) using a Nanospray Flex ion source (Thermo Fisher Scientific). The mass spectrometer was operated using a 3 second top speed data-dependent acquisition mode. Fourier transform mas spectra (FTMS) were collected using 120,000 resolving power, an automated gain control (AGC) target of 200,000, and a maximum injection time of 50 ms. […]

[4] = 50 μM cisplatin for 1, 6, 24 and 48 h

For `N.N.[Cl][Pt][Cl]` [cisplatin], the “earliest time at which cisplatin-induced toxicity is measurable” value (A549 cells [1]; 50 μM) was at most 1 h, the “optimal dose (maximum response in physiological and molecular screen, cell viability >50%)” value (A549 cells [1]; exposure 1 and 6 h molecular screen, 24 h caspase assay) was 50 μM and the “caspase activation over time” value (A549 cells [2]) was “ceased after 48 h”. The “time of maximal caspase activation” value (A549 cells [2]) was 24 h, the “BAD phosphorylation (pSer75 at 48 h; pSer118 at 24 h and 48 h)” value (A549 cells [3]; 50 μM cisplatin) was “increased” and the “share of unique detected species significantly changed” value (A549 cells [3]; [4]) was 24%. For the same molecule, the “unique species significantly changed” value (A549 cells [3]; [4]) was 13,483, the “phosphorylated ERK1 and/or ERK2 (pThr202/pTyr204; pThr185/pTyr187)” value (A549 cells [3]; 50 μM cisplatin, 1, 6, 24, 48 h) was “increased at each time point” and the ATP1A1 peptides (A549 cells [3]; 50 μM cisplatin, 6 and 24 h) was “decreased significantly”. For the same molecule, the “CUL4B C-terminal peptide” value (A549 cells [3]; 50 μM cisplatin, 1 h) was “increased”, the Ncx1 transcript (A549 cells [3]; 50 μM cisplatin, 6 h) was “significant decrease” and the BAK1 (A549 cells [3]; 50 μM cisplatin, 24 h) was “increased”. For the same molecule, the CASP9 transcript (A549 cells [3]; 50 μM cisplatin, 24 h) was “downregulation”, the “phosphorylated mTOR at pS1166” value (A549 cells [3]; 50 μM cisplatin, 24 h) was “increased” and the HUWE1 abundance (A549 cells [3]; 50 μM cisplatin, 48 h) was “decreased”. For the same molecule, the “p53 pSer392” value (A549 cells [3]; 50 μM cisplatin, beginning at 24 h) was “increased significantly”, the “p53 pSer313, pSer314 and/or pSer315” value (A549 cells [3]; 50 μM cisplatin, starting at 6 h) was “increased significantly” and the “estrogen species (E1, E2)” value (A549 cells [3]; 50 μM cisplatin, E1 up at 1 h, E1 and E2 up at 6 h, decreased by 24 h) was “transiently increased”. The “BAX, CYCS, APAF1 and CASP3 transcripts” value (A549 cells [3]; 50 μM cisplatin, no proteomic abundance changes) was “transcriptional upregulation”.
